According to ChEMBL document CHEMBL1139096, “HeLa cells apoptosis induced by 1,7-dimethyl-1,4,7,10-tetraazacyclododecane” (2007):
Activity calls are given as the source filed them. The calls are words filed in the database; no cut-off is given here.

How the values were obtained:
HeLa [1] = test: Induction of apoptosis in human HeLa cells at 300 umol/L by flow cytometry; format: functional
HeLa [2] = test: Cell cycle arrest in human HeLa cells assessed as accumulation at G0-G1 phase at 50 umol/L after 72 hrs; format: functional
A549 [3] = test: Growth inhibition of human A549 cells at 0.1 mM by MTT assay; format: functional; conditions: read-out: GI
A549 [4] = test: Growth inhibition of human A549 cells at 10 uM by MTT assay; format: functional; conditions: read-out: GI
HeLa [5] = test: Cell cycle arrest in human HeLa cells assessed as accumulation at G2/M phase at 200 umol/L after 72 hrs; format: functional
HeLa [6] = test: Induction of apoptosis in human HeLa cells assessed as morphological changes at 100 umol/L; format: functional, cell-based
HeLa [7] = test: Cell cycle arrest in human HeLa cells assessed as accumulation at G2/M phase at 300 umol/L after 72 hrs; format: functional
A549 [8] = test: Induction of apoptosis in human A549 cells at 200 umol/L by flow cytometry; format: functional
HeLa [9] = test: Induction of apoptosis in human HeLa cells assessed as morphological changes at 200 umol/L; format: functional, cell-based
HeLa [10] = test: Growth inhibition of human HeLa cells at 10 uM by MTT assay; format: functional; conditions: read-out: GI
HeLa [11] = test: Growth inhibition of human HeLa cells at 1 uM by MTT assay; format: functional; conditions: read-out: GI
HeLa [12] = test: Induction of apoptosis in human HeLa cells assessed as morphological changes at 50 umol/L; format: functional, cell-based
HeLa [13] = test: Cell cycle arrest in human HeLa cells assessed as accumulation at S phase at 300 umol/L after 72 hrs; format: functional
A549 [14] = test: Growth inhibition of human A549 cells at 1 uM by MTT assay; format: functional; conditions: read-out: GI
HeLa [15] = test: Induction of apoptosis in human HeLa cells assessed as DNA fragmentation at 200 umol/L by electrophoresis; format: functional, cell-based
A549 [16] = test: Growth inhibition of human A549 cells at 0.1 uM by MTT assay; format: functional; conditions: read-out: GI
HeLa [17] = test: Cell cycle arrest in human HeLa cells assessed as accumulation at S phase at 50 umol/L after 72 hrs; format: functional
HeLa [18] = test: Growth inhibition of human HeLa cells at 0.1 uM by MTT assay; format: functional
HeLa [19] = test: Growth inhibition of human HeLa cells at 0.1 mM by MTT assay; format: functional; conditions: read-out: GI
HeLa [20] = test: Cell cycle arrest in human HeLa cells assessed as accumulation at G0-G1 phase at 300 umol/L after 72 hrs; format: functional

CN1CCNCCN(C)CCNCC1
Activity (HeLa [1]): 55%
Activity (HeLa [2]): 60.5%
inhibition of growth at 100 µM (A549 [3]): 53.6%
inhibition of growth at 10 µM (A549 [4]): 22.4%
Activity (HeLa [5]): 25.2%
Activity (HeLa [6]): Active
Activity (HeLa [7]): 15.3%
Activity (A549 [8]): 7%
Activity (HeLa [9]): Active
inhibition of growth at 10 µM (HeLa [10]): 17.7%
inhibition of growth at 1 µM (HeLa [11]): 9.8%
Activity (HeLa [12]): inactive
Activity (HeLa [13]): 0%
inhibition of growth at 1 µM (A549 [14]): 13.7%
Activity (HeLa [15]): Active
inhibition of growth at 0.1 µM (A549 [16]): 11%
Activity (HeLa [17]): 33.3%
growth inhibition (GI) (HeLa [18]): 9%
inhibition of growth at 100 µM (HeLa [19]): 63.1%
Activity (HeLa [20]): 84.7%
